Data on one compound can be found in PMC6627779, “Experimental Approaches and Computational Modeling of Rat Serum Albumin and Its Interaction with Piperine” (International Journal of Molecular Sciences, 2019).

This assay has as its target T1, rat serum albumin (RSA) (Rattus norvegicus, UniProt P02770).
T1 construct: gene Alb
The assay is described as follows: Trp214 fluorescence quenching titration (steady-state, double-log Ka; IDF/Scatchard Kb […] ^−[…]), static mechanism confirmed by time-resolved fluorescence. Format: binding. The note with it: read-out: Ka (×10^4 M^-1) (converted).

T1 sequence (P02770 25-608): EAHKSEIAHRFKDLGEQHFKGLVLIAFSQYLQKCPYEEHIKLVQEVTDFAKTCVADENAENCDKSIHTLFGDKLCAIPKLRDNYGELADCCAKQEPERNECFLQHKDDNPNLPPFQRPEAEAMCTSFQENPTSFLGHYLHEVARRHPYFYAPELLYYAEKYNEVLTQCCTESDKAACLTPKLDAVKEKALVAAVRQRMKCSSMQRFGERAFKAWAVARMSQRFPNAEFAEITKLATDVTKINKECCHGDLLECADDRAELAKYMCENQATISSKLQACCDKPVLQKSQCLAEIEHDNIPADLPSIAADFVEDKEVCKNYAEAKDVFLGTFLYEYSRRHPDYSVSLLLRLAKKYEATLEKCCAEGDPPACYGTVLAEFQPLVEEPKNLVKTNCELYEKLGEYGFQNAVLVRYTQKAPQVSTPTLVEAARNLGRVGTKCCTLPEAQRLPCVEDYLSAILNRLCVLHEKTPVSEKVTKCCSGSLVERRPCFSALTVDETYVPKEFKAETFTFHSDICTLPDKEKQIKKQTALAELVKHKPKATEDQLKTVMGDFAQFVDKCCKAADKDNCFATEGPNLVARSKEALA

On to `O=C(/C=C/C=C/c1ccc2c(c1)OCO2)N1CCCCC1` [piperine], for which the Kd was 25.6 µM.
